Assay results published in publication PMC4768645, “Electronic Olfactory Sensor Based on A. mellifera Odorant‐Binding Protein 14 on a Reduced Graphene Oxide Field‐Effect Transistor” (Angewandte Chemie (International Ed. in English), 2015).
Where two headings read alike, the source gives them in different places.

Target: T1, odorant-binding protein 14 (OBP14) (Apis mellifera, UniProt A0A8U0WQC3)
T1 construct: recombinant OBP14, cloning, expression and purification in supplement; immobilised via PBSE linker on reduced graphene oxide FET gate
T1 sequence (A0A8U0WQC3 17-135): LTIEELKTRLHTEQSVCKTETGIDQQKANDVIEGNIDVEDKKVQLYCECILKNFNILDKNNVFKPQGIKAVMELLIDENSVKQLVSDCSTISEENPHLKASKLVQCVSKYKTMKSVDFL
Test: rGO-FET biosensor, real-time source-drain current, global Langmuir analysis
Excerpt: rGO-FET biosensor, real-time source-drain current, global Langmuir analysis on odorant-binding protein 14 (OBP14)

C=CCc1ccc(OC)c(OC)c1 [Methyl eugenol]
Kd (read-out: Methyl eugenol): 1400 µM

C=CCc1ccc(O)c(OC)c1 [Eugenol]
Kd (read-out: Eugenol): 40 µM

CC(C)=CCC/C(C)=C/CO [Geraniol]
Kd (read-out: Geraniol): 3300 µM

CC(C)=CCCC(C)=CC=O [Citral]
Kd (read-out: Citral): 800 µM

COC(=O)c1ccc(O)c(OC)c1 [Methyl vanillate]
Kd (read-out: Methyl vanillate): 20 µM

COc1cc(CC(=O)O)ccc1O [Homovanillic acid]
Kd (read-out: Homovanillic acid): 4 µM
